Assay results taken from article PMC10851555, “Safinamide, an inhibitor of monoamine oxidase, modulates the magnitude, gating, and hysteresis of sodium ion current” (BMC Pharmacology & Toxicology, 2024).

How the values were obtained:
[1] = test system: voltage-gated sodium ion (NaV) channels in pituitary GH3 cells; assay: Persistent INa [INa(P)] and Hys(V) induced by upright isosceles-triangular Vramp (3.2 s) in GH3 cells; format: cell-based, rat; details: n = 7; for INa(P) amplitude at −10 mV [high-threshold Hys(V) loop]: control 175 ± 14 pA; for INa(P) amplitude at −80 mV [low-threshold Hys(V) loop]: control 288 ± 25 pA
Description: We further investigated whether SAF exposure modulated the magnitude and Hys(V) behavior of INa(P) induced by an isosceles-triangular Vramp in GH3 cells. To record whole-cell currents, the test cells were maintained at −80 mV and subjected to an upright isosceles-triangular Vramp ascending from –110 and +50 mV over 3.2 s (digital-to-analog conversion; Fig. 8A). […] For example, when test cells were subjected to an isosceles-triangular Vramp over 3.2 s (ramp speed of 0.1 mV/ms), the INa(P) amplitudes measured at −10 mV (high threshold) and −80 mV (low threshold) during the control period were 175 ± 14 pA (n = 7) and 288 ± 25 pA (n = 7), respectively. After the addition of 3 and 10 μM SAF, the INa(P) amplitude at −10 mV [high-threshold Hys(V) loop] was 194 ± 17 pA (n = 7, P < 0.05) and 219 ± 18 pA (n = 7, P < 0.05), respectively; the corresponding amplitudes at −80 mV [low-threshold Hys(V) loop] were 348 ± 29 pA (n = 7, P < 0.05) and 389 ± 31 pA (n = 7, P < 0.05), respectively. […] These findings indicate the unique Hys(V) behavior of INa(P) induced by an isosceles-triangular Vramp in GH3 cells; SAF exposure may increase the strength of Hys(V).
Fig. 8 Stimulatory effects of SAF on the voltage-dependent hysteresis [Hys(V)] behavior of persistent INa [INa(P)] induced by upright isosceles-triangular Vramp. Vramp was supplied for 3.2 s (ramp speed of 0.1 mV/ms; digital-to-analog conversion) to induce Hys(V) behavior in GH3 cells. (A) Current traces during the control period (left) and during the exposure to 10 μM SAF (right). The blue and red traces shown in each panel represent currents induced by the upsloping (ascending) and downsloping (descending) limbs of the upright isosceles-triangular Vramp, respectively. The inset indicates the voltage protocol. The dashed arrows indicate the direction of the current trajectory over time. (B) Summary graphs illustrating the effects of SAF (3 and 10 μM), SAF plus MGB, and SAF plus Ran on the amplitude of Vramp-induced INa(P) measured at −10 mV (ascending limb; left side) and −80 mV (descending limb; right side).

[2] = test system: voltage-gated sodium ion (NaV) channels in pituitary GH3 cells; assay: Window INa [INa(W)] induced by ascending ramp voltage (−100 to +40 mV over 200 ms) in GH3 cells; format: cell-based, rat; details: for ∆G0 for gating of INa(W) activation at 0 mV: control 6.78 ± 1.1, ∆G0 = q × F × V1/2, n = 7
Description: The sigmoidal relationship between Vramp-induced INa(W) and the upsloping Vramp (nonlinear current–voltage relationship) was investigated and fitted with the Boltzmann function as follows: [drawing 2]
where V is the membrane potential in millivolts, Erev is the reversal potential of INa, G is the INa conductance in nanosiemens, I is the current, Vh is the voltage at which half-maximal activation or inactivation of the current occurs, q is the apparent gating charge, F is Faraday’s constant, R is the universal gas constant, and T is the absolute temperature.
The free energy ∆G0 for the gating of INa(W) was determined by assuming a two-state gating model [equilibrium between closed (resting) and open states] of the NaV channel. The ∆G0 for the activation of INa(W) at 0 mV could be calculated as follows: q × F × V1/2 [45, 46]. The standard errors in ∆G0 ( [drawing 3] ) could be calculated as follows: […]
In the present study, we investigated whether the addition of SAF to GH3 cells modulates the magnitude of INa(W) induced by ascending Vramp. Test cells were maintained at −80 mV and subjected to Vramp ascending from −100 to +40 mV over 200 ms (i.e., ramp speed of 0.7 mV/ms) to induce INa(W). […] The ∆area values of INa(W) in the absence and presence of SAF and SAF plus Ran were calculated (Fig. 7B).
Fig. 7 Stimulatory effects of SAF on window INa [INa(W)] induced by an ascending ramp voltage Vramp in GH3 cells. For the experiments, the test cells were maintained at −80 mV and subjected to Vramp ranging from −100 to +40 mV over 200 ms (ramp speed of 0.7 mV/ms). (A) INa(W) trace in the absence (a, blue) and presence (b, red) of 10 μM SAF. The inset indicates the Vramp protocol, and the downward deflection indicates inward-directed current. The continuous gray lines corresponding to the untreated or SAF-treated (10 μM) cells were fitted (least-squares minimization) with the Boltzmann equation. The values of […] and q (apparent gating charge) induced by ascending Vramp over 200 ms in the absence (blue) of SAF were, respectively, −34 mV and 2.1 e; the corresponding values in the presence (red) of 10 μM SAF were −38 mV and 2.8 e, respectively. (B) Summary graph illustrating the effects of SAF (3 and 10 μM) and SAF (10 μM) plus Ran (10 μM) on the Δarea of INa(W) in GH3 cells (mean ± standard error of the mean; n = 7 for each point). The value of Δarea was measured at a voltage ranging from −80 and +40 mV, which corresponded to INa(W) induced by the ascending Vramp. […] (C) Summary graph illustrating the effects of SAF (3 and 10 μM) and SAF plus Ran (10 μM) on ΔG0 (mean ± standard error of the mean; n = 7 for each point). The estimation of ΔG0 for the induction of instantaneous INa(W) is described in the Materials and Methods section.

## C[C@H](NCc1ccc(OCc2cccc(F)c2)cc1)C(N)=O [SAF, (S)-2-((4-((3-fluorobenzyl)oxy)benzyl)amino)propanamide]
[1]; 3 μM SAF
  INa(P) amplitude at −10 mV [high-threshold Hys(V) loop]: 194 ± 17 pA
  INa(P) amplitude at −80 mV [low-threshold Hys(V) loop]: 348 ± 29 pA
[1]; 10 μM SAF
  INa(P) amplitude at −10 mV [high-threshold Hys(V) loop]: 219 ± 18 pA
  INa(P) amplitude at −80 mV [low-threshold Hys(V) loop]: 389 ± 31 pA
[2]; 3 μM SAF
  ∆G0 for gating of INa(W) activation at 0 mV: 2.11 ± 0.382 kcal/mol
[2]; 10 μM SAF, absence of SAF 2.1 e
  q (apparent gating charge) of INa(W): 2.8 e
[2]; 10 μM SAF, absence of SAF −34 mV
  V1/2 (half-maximal activation voltage) of INa(W) induced by ascending Vramp (Boltzmann fit): −38 mV
[2]; 10 μM SAF
  ∆G0 for gating of INa(W) activation at 0 mV: 2.476 ± 0.43 kcal/mol
[2]; within 1 min of SAF exposure
  amplitude and strength (∆area) of INa(W): sharply increased
